The source of these data is ChEMBL document CHEMBL1201862, “PubChem BioAssay data set” (2004).

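Five concentrations, 48 hours, 96-well plates. At the GI50, growth is halved.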 Activity calls are given as the source filed them. Rule as the data show it: active = GI50 up to about 1.1 µM and inactive = higher.

Test systems include SNB-19; SF-268; DU-145; RXF 393; SNB-75; HCC 2998; IGROV-1; T47D; MCF7; EKVX; A549; MOLT-4; A498; OVCAR-5; SK-MEL-5; NCI-H226; HOP-92; Hs-578T; SK-MEL-28; SW-620.
What all share (experiment): NCI-60 cell line screen, 48 h

As for `N#C[BH2-][n+]1cn(C2CC(O)C(COP(=O)(O)OC3CC(n4ccc(N)nc4=O)OC3CO)O2)c2nc(N)[nH]c(=O)c21` (configuration not stated), the GI50 in the test on SNB-19, with SF-268, with DU-145, with RXF 393, with SNB-75 and in the test on HCC 2998 was > 100 µM (inactive) throughout. The GI50 with IGROV-1, with T47D, in the test on MCF7, with EKVX, with A549 and in the test with MOLT-4 was > 100 µM (inactive) throughout. In addition, the GI50 with A498, with OVCAR-5, in the test with SK-MEL-5, with NCI-H226 and with HOP-92 was > 100 µM (inactive) in each case.

Turning to `O=C(C[N+]1(c2ccccc2)CCOCC1)c1ccccc1`, the GI50 with SNB-19, in the test on SF-268, in the test on DU-145, in the test on Hs-578T, in the test on RXF 393 and in the test on SNB-75 was > 100 µM (inactive) each time. Moreover, the GI50 was > 100 µM (inactive) in the test on HCC 2998; > 100 µM (inactive) in the test with IGROV-1; > 100 µM (inactive) in the test on T47D; 96.6 µM (inactive) in the test with EKVX; > 100 µM (inactive) with A549; 30.4 µM (inactive) in the test with MOLT-4. Moreover, the GI50 is > 100 µM (inactive) in the test on A498; > 100 µM (inactive) in the test on OVCAR-5; > 100 µM (inactive) in the test with SK-MEL-5; 0.0445 µM (active) in the test on SK-MEL-28; > 100 µM (inactive) in the test with NCI-H226; > 100 µM (inactive) with HOP-92.

As to `Clc1ccc(OCc2nn3c(CCc4nnc5sc(COc6ccc(Cl)cc6)nn45)nnc3s2)cc1`, the GI50 is 5.61 µM (inactive) in the test with SF-268; 19.1 µM (inactive) in the test with DU-145; 3.94 µM (inactive) in the test on Hs-578T; 23.8 µM (inactive) in the test on RXF 393; 16.8 µM (inactive) with IGROV-1; 22.4 µM (inactive) in the test with T47D. Moreover, the GI50 with MCF7 is 21.4 µM (inactive); in the test with EKVX, 27.7 µM (inactive); in the test with MOLT-4, 6.62 µM (inactive); with A498 it was 11.9 µM (inactive); in the test on OVCAR-5, 53.7 µM (inactive); in the test with SK-MEL-5, 11.1 µM (inactive). For the same molecule, the GI50 in the test on SK-MEL-28 is 33.9 µM (inactive); in the test with NCI-H226 it was 30.3 µM (inactive); in the test with SW-620, 25.2 µM (inactive).

As for `Nc1ccc(COC(O)CN2CCCCC2)cc1[N+](=O)[O-]` (configuration not stated), the GI50 with SNB-19 was > 100 µM (inactive); in the test on SF-268, > 100 µM (inactive); with DU-145, > 100 µM (inactive); in the test on RXF 393, > 100 µM (inactive); in the test on SNB-75, 70.5 µM (inactive); in the test on HCC 2998, > 100 µM (inactive). The GI50 in the test on IGROV-1, in the test with T47D, in the test on MCF7, in the test on A549, in the test on MOLT-4 and in the test with A498 was > 100 µM (inactive) each time. The GI50 in the test on OVCAR-5, with SK-MEL-5, in the test on SK-MEL-28, in the test on NCI-H226, in the test with SW-620 and in the test with HOP-92 was > 100 µM (inactive) throughout.

For the molecule `CC1=CC(=O)/C(=C/NC(=S)c2ccccc2)C(=O)O1`, the GI50 with SNB-19, in the test with DU-145, in the test with SNB-75, with HCC 2998, with IGROV-1 and in the test on T47D was > 100 µM (inactive) each time. For the same molecule, the GI50 with MCF7, in the test with EKVX, in the test with A549, in the test on MOLT-4, in the test with OVCAR-5 and with SK-MEL-5 was > 100 µM (inactive) throughout. Besides, the GI50 in the test on SK-MEL-28, in the test on NCI-H226, in the test on SW-620 and in the test with HOP-92 was > 100 µM (inactive) each time.

With `Nc1ccn(C2OC(COP(=O)(O)OCC3OC(n4cc(F)c(=O)[nH]c4=O)CC3O)C(O)C2O)c(=O)n1` (configuration not stated), the GI50 in the test on SNB-19 was 0.585 µM (active); in the test on SF-268 it was < 0.01 µM (active); in the test on DU-145, 0.0828 µM (active); in the test with Hs-578T, > 100 µM (inactive); in the test on RXF 393 it was > 56.8 µM (inactive); with SNB-75, > 48.3 µM (inactive). Further, the GI50 with HCC 2998 is 87.9 µM (inactive); in the test on IGROV-1, > 34 µM (inactive); with T47D it was 4.47 µM (inactive); with EKVX, > 100 µM (inactive); with A549 it was 0.0244 µM (active); in the test with MOLT-4, 0.0575 µM (active). For the same molecule, the GI50 in the test with A498 is 0.225 µM (active); with OVCAR-5 it was > 100 µM (inactive); with SK-MEL-5, 0.605 µM (active); in the test on SK-MEL-28, > 25.5 µM (inactive); in the test on NCI-H226 it was > 22.9 µM (inactive); in the test on SW-620, > 100 µM (inactive). In addition, the GI50 in the test on HOP-92 is 38 µM (inactive).

As to `CCOc1cc(CC[N+](C)(C)C)c2c(ccc3ccc(OC)c(OC)c32)c1OC`, the GI50 in the test on SNB-19 is > 100 µM (inactive); in the test on SF-268, > 100 µM (inactive); in the test on DU-145 it was > 100 µM (inactive); with RXF 393 it was > 10 µM (inactive); in the test with SNB-75, > 100 µM (inactive); in the test on HCC 2998 it was > 100 µM (inactive). In addition, the GI50 is > 100 µM (inactive) in the test with IGROV-1; > 100 µM (inactive) with T47D; > 100 µM (inactive) in the test with EKVX; > 100 µM (inactive) with A549; > 10 µM (inactive) in the test on MOLT-4; 63 µM (inactive) in the test with SK-MEL-5. Further, the GI50 in the test with SK-MEL-28, in the test with SW-620 and with HOP-92 was > 100 µM (inactive) throughout.

As for `Nc1ccccc1/C=C\c1ccccc1`, the GI50 with SNB-19, in the test on SF-268, in the test with DU-145, in the test on Hs-578T, with RXF 393 and in the test with SNB-75 was > 100 µM (inactive) each time. The GI50 in the test with IGROV-1, in the test with T47D, in the test on MCF7, in the test with EKVX, in the test on A549 and in the test on MOLT-4 was > 100 µM (inactive) in each case. In addition, the GI50 with OVCAR-5, in the test on SK-MEL-5, with SK-MEL-28, with NCI-H226, in the test with SW-620 and in the test with HOP-92 was > 100 µM (inactive) each time.

As for `O=S(=O)(O)c1ccc2c(/N=N/c3ccc(Cl)cc3)c(O)ccc2c1`, the GI50 in the test on SNB-19, in the test with SF-268, with DU-145, with Hs-578T, with RXF 393 and with SNB-75 was > 100 µM (inactive) in each case. For the same molecule, the GI50 is > 100 µM (inactive) with IGROV-1; 89.3 µM (inactive) in the test on T47D; > 100 µM (inactive) with EKVX; > 100 µM (inactive) with A549; > 100 µM (inactive) in the test with MOLT-4; > 100 µM (inactive) in the test with A498. Also, the GI50 with OVCAR-5, in the test with SK-MEL-5, in the test on SK-MEL-28, in the test with SW-620 and in the test with HOP-92 was > 100 µM (inactive) throughout.

For `Cc1nc(Cl)nc(Cl)c1C`, the GI50 in the test on SNB-19, with SF-268, in the test with Hs-578T, with RXF 393, with SNB-75 and with HCC 2998 was > 100 µM (inactive) each time. Moreover, the GI50 in the test on IGROV-1, in the test on MCF7, with EKVX, in the test with A549, with MOLT-4 and with OVCAR-5 was > 100 µM (inactive) throughout. In addition, the GI50 in the test on SK-MEL-5, in the test on SK-MEL-28, with NCI-H226 and in the test with SW-620 was > 100 µM (inactive) throughout.

As to `CC1=C(C(=O)Nc2ccc([N+](=O)[O-])cc2)C(c2ccco2)C(C(=O)Nc2ccc([N+](=O)[O-])cc2)=C(C)N1`, the GI50 in the test on SNB-19 was 27.1 µM (inactive); with SF-268, 21.3 µM (inactive); in the test on RXF 393 it was 4.61 µM (inactive); with SNB-75, 2.72 µM (inactive); with HCC 2998, 8.77 µM (inactive); with IGROV-1, 14.9 µM (inactive). In addition, the GI50 was 3.63 µM (inactive) in the test on EKVX; 18.1 µM (inactive) in the test on A549; 4.33 µM (inactive) in the test with MOLT-4; 10.5 µM (inactive) in the test on A498; 30.9 µM (inactive) in the test with OVCAR-5; 14.5 µM (inactive) in the test on SK-MEL-5. Further, the GI50 with SK-MEL-28 is 28.2 µM (inactive); in the test on NCI-H226, 19.1 µM (inactive); in the test with SW-620, 24.4 µM (inactive); in the test on HOP-92 it was 14.8 µM (inactive).

Consider `COc1ccc2c(c1)CN1C(=N2)CSC1c1cc([N+](=O)[O-])ccc1Cl` (configuration not stated), for which the GI50 is 52.6 µM (inactive) with SNB-19; 46.6 µM (inactive) with SF-268; 47.1 µM (inactive) with Hs-578T; 26.2 µM (inactive) in the test with RXF 393; 52.1 µM (inactive) in the test with SNB-75; 33.1 µM (inactive) with HCC 2998. For the same molecule, the GI50 was 58.7 µM (inactive) in the test on IGROV-1; 32.4 µM (inactive) in the test with T47D; 28.2 µM (inactive) in the test with MCF7; 23.6 µM (inactive) with EKVX; 33.2 µM (inactive) in the test with A549; 29.2 µM (inactive) with MOLT-4. Besides, the GI50 with OVCAR-5 is 58.5 µM (inactive); in the test with SK-MEL-5, 25.6 µM (inactive); in the test on NCI-H226, 42 µM (inactive); in the test with SW-620, 31 µM (inactive); in the test on HOP-92 it was 37.4 µM (inactive).
